Tests used:
[1] = target: T1, ALDH2 (Homo sapiens, UniProt P05091); test: QuantiChrom ALDH inhibitor screening kit, diaphorase/MTT-coupled colorimetric assay ([…] nm), recombinant enzyme; format: biochemical
T1 sequence (P05091 18-517): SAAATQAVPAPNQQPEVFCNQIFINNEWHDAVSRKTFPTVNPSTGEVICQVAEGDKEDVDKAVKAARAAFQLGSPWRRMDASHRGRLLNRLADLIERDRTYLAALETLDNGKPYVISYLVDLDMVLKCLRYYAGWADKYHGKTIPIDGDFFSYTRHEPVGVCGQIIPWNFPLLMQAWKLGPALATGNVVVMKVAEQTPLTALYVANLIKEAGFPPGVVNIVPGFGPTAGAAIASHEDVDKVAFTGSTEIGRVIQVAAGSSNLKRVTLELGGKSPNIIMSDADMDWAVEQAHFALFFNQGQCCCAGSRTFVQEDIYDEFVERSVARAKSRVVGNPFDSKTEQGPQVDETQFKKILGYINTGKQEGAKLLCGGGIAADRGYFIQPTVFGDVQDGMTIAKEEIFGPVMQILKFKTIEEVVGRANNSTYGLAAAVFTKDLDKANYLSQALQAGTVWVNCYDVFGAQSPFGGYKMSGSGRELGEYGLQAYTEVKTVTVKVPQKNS

[2] = target: T1, ALDH2; test: QuantiChrom ALDH inhibitor screening kit, % inhibition at […], recombinant enzyme; format: biochemical

| SMILES | IC50 [1] [µM] | inhibition at 20 µM [2] [%] |
| --- | --- | --- |
| O=c1c(O)c(-c2ccc(O)c(O)c2)oc2cc(O)cc(O)c12 [compound 2, quercetin] | 26.5 | – |
| COc1ccc(-c2oc3cc(O)cc(O)c3c(=O)c2O)cc1O [compound 8, tamarixetin] | – | 25.8 ± 1.31 |
| O=C(O)[C@H]1O[C@@H](Oc2c(-c3ccc(O)c(O)c3)oc3cc(O)cc(O)c3c2=O)[C@H](O)[C@@H](O)[C@@H]1O [compound 9, quercetin-3-glucuronide] | 9.62 | – |
